Data as given in patent US11898187B2 (priority 2017, dated 2024).

Tested on: HiNGT, EcNGT, ApNGT and ApNGT^Q469A
Assay type: biochemical

In the case of WGNWS, the “differential sequence preference in regard to N-glycosylation: which NGT modifies the sequence” value is reported as “for EcNGT but not for HiNGT”.
